This note sets out measurements from PubChem BioAssay (NCI).

“And” between values parts separate entries of the source, which are not always exact repeats. Identical values can stand only once.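 Five compound concentrations were applied to cells in 96-well plates for 48 hours; endpoints were derived by simple linear interpolation of the resulting dose-response curve. The concentration for 50% growth inhibition is given as GI50. At the TGI there is no net growth.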 Bounds are passed on as bounds.

Some test systems named below: A498 renal; BT-549 breast; CCRF-CEM leukemia; HL-60(TB) leukemia; HS 578T breast; HT29 colon; MDA-MB-231 breast; SK-MEL-28 melanoma; SR leukemia; SW-620 colon.
Test in all cases: NCI tumour cell line growth inhibition, 48 h

`O=S(=O)(Nc1ccc(Br)c(Cl)c1)c1ccc(-c2cnc(C3CC3)o2)cc1`: the GI50 with A498 renal was 0.189 µM; in the experiment on BT-549 breast, 0.682 µM; with CCRF-CEM leukemia, 0.411 µM; in the experiment on HL-60(TB) leukemia it was 0.303 µM; with HS 578T breast it was 0.351 µM; in the experiment on HT29 colon, 0.356 µM. The GI50 in the experiment with MDA-MB-231 breast is 1.91 µM; in the experiment with SK-MEL-28 melanoma, 4.35 µM; in the experiment on SR leukemia it was 0.38 µM; in the experiment with SW-620 colon, 0.392 µM. In addition, the TGI in the experiment on A498 renal was 0.845 µM; with BT-549 breast, 17.8 µM; with CCRF-CEM leukemia, over 45.9 µM; in the experiment on HL-60(TB) leukemia it was 4.96 µM; in the experiment with HS 578T breast it was 18.3 µM; with HT29 colon, 5.23 µM. Besides, the TGI in the experiment with MDA-MB-231 breast was 16.4 µM; with SK-MEL-28 melanoma, 22 µM; in the experiment on SR leukemia, over 49.4 µM; with SW-620 colon, 15.4 µM.

`CCCc1cc(=O)[nH]c(-n2nc(C)cc2C)n1`: the GI50 was 11.7 µM in the experiment on A498 renal; 6.86 µM with BT-549 breast; 1.59 µM in the experiment with CCRF-CEM leukemia; 2.04 µM in the experiment on HL-60(TB) leukemia; 15 µM with HS 578T breast; 6.68 µM with HT29 colon. Further, the GI50 with MDA-MB-231 breast was 4.47 µM; in the experiment on SK-MEL-28 melanoma, 3.8 µM; with SR leukemia it was 3.46 µM; in the experiment on SW-620 colon, 3.93 µM. The TGI in the experiment with A498 renal is over 100 µM; in the experiment on BT-549 breast it was over 100 µM; in the experiment with CCRF-CEM leukemia it was 26.5 µM; with HL-60(TB) leukemia it was 20.7 µM; in the experiment with HS 578T breast, over 100 µM; with HT29 colon it was 38.5 µM. The TGI with MDA-MB-231 breast was over 100 µM; with SK-MEL-28 melanoma, 40.4 µM; in the experiment on SR leukemia it was over 100 µM; in the experiment with SW-620 colon it was over 100 µM.

In the case of `CCOC(=O)c1c2c(n(Cc3ccc(Cl)cc3Cl)c1C)-c1nc[nH]c1C(=O)C2=O`, the GI50 is 19.7 µM with A498 renal; 15.5 µM with BT-549 breast; 0.651 µM in the experiment on CCRF-CEM leukemia; 2.18 µM in the experiment on HL-60(TB) leukemia; 23.1 µM in the experiment with HS 578T breast; 15.5 µM in the experiment with HT29 colon. In addition, the GI50 in the experiment with MDA-MB-231 breast was 2.24 µM; with SK-MEL-28 melanoma, 15.6 µM; in the experiment on SR leukemia, 1.21 µM; in the experiment on SW-620 colon, 6.19 µM. Besides, the TGI with A498 renal is 36.1 µM; in the experiment on BT-549 breast it was 31.8 µM; with CCRF-CEM leukemia, 2.29 µM; in the experiment with HL-60(TB) leukemia, 5.14 µM; with HS 578T breast it was 74.5 µM; with HT29 colon, 28.8 µM. The TGI was determined as 5.04 µM in the experiment with MDA-MB-231 breast, 28.9 µM with SK-MEL-28 melanoma, 2.79 µM with SR leukemia and 18.2 µM in the experiment on SW-620 colon.

Take `O=C(O)c1cc2ccc3ccccc3c2oc1=O`: the TGI in the experiment with A498 renal, in the experiment on BT-549 breast, in the experiment with CCRF-CEM leukemia, with HL-60(TB) leukemia, in the experiment on HS 578T breast and in the experiment with HT29 colon was over 100 µM in each case. Besides, the TGI in the experiment with MDA-MB-231 breast, in the experiment on SK-MEL-28 melanoma, in the experiment on SR leukemia and with SW-620 colon was over 100 µM throughout.

`CCOC(=O)c1cc2c(n1Cc1cccc(OC)c1)-c1oncc1CCC2`: the GI50 is 0.881 µM with A498 renal; 1.61 µM in the experiment with BT-549 breast; 2.17 µM with CCRF-CEM leukemia; 1.19 µM in the experiment on HL-60(TB) leukemia; 1.6 µM in the experiment on HS 578T breast; 0.401 µM in the experiment on HT29 colon. Besides, the GI50 is 4.06 µM in the experiment with MDA-MB-231 breast, 5.55 µM with SK-MEL-28 melanoma, 0.301 µM in the experiment with SR leukemia and 0.554 µM with SW-620 colon. The TGI in the experiment with A498 renal is 17.6 µM; in the experiment with BT-549 breast, over 100 µM; with CCRF-CEM leukemia it was over 100 µM; in the experiment on HL-60(TB) leukemia, over 58.4 µM; in the experiment on HS 578T breast, 24.8 µM; in the experiment on HT29 colon it was 22.8 µM. The TGI was over 100 µM with MDA-MB-231 breast, over 100 µM with SK-MEL-28 melanoma, 26.8 µM in the experiment with SR leukemia and over 100 µM in the experiment with SW-620 colon.

`O=C1c2cccc(NCCN=Cc3cc([N+](=O)[O-])ccc3O)c2C(=O)c2c(NCCN=Cc3cc([N+](=O)[O-])ccc3O)cccc21`: the GI50 in the experiment on A498 renal is 3.73 µM; in the experiment on BT-549 breast, 36.9 µM; with CCRF-CEM leukemia it was 0.963 µM; in the experiment on HL-60(TB) leukemia, 38.8 µM; in the experiment with HS 578T breast, 2.74 µM; in the experiment on HT29 colon, 1.26 µM. Further, the GI50 is 3.12 µM in the experiment on MDA-MB-231 breast, 14.9 µM with SK-MEL-28 melanoma, 1.49 µM with SR leukemia and 1.49 µM in the experiment on SW-620 colon. In addition, the TGI in the experiment on A498 renal is 31.6 µM; in the experiment on BT-549 breast, over 100 µM; with CCRF-CEM leukemia, 9.89 µM; in the experiment on HL-60(TB) leukemia it was over 100 µM; with HS 578T breast it was 29.4 µM; with HT29 colon, over 100 µM. Further, the TGI in the experiment with MDA-MB-231 breast is 71.7 µM; with SK-MEL-28 melanoma, over 100 µM; in the experiment on SR leukemia, over 100 µM; with SW-620 colon, over 100 µM.

In the case of `COc1ccc2c(c1)nnn1c3ncccc3c(N=O)c21`, the GI50 with A498 renal is 1.27 µM and 6.23 µM; with BT-549 breast, 5.06 µM and 1.46 µM; in the experiment with CCRF-CEM leukemia, 0.0409 µM; in the experiment on HL-60(TB) leukemia, 0.0433 µM and 0.359 µM; in the experiment with HS 578T breast, 1.17 µM and 11.5 µM; with HT29 colon it was 0.622 µM and 1.2 µM. The GI50 in the experiment with MDA-MB-231 breast is 1.26 µM and 1.88 µM; in the experiment on SK-MEL-28 melanoma, 3.48 µM and 11.4 µM; with SR leukemia, 0.00899 µM and 0.0247 µM; in the experiment with SW-620 colon it was 0.27 µM and 1.34 µM. The TGI with A498 renal is 6.26 µM and 22.5 µM; in the experiment on BT-549 breast it was 16.3 µM and 4.68 µM; with CCRF-CEM leukemia, over 100 µM; in the experiment with MDA-MB-231 breast, 12.7 µM and 6.41 µM; with SK-MEL-28 melanoma it was 13.6 µM and 74.4 µM.

As for `COc1cc2oc3cc(=O)cc4oc(-c5ccccc5)cc(c2c2c1CCC(c1ccccc1)O2)c43` (stereo not given), the TGI in the experiment with A498 renal is over 100 µM; in the experiment on BT-549 breast, over 100 µM; with CCRF-CEM leukemia, over 100 µM; in the experiment with HL-60(TB) leukemia it was 62.7 µM; with HS 578T breast, over 100 µM; with HT29 colon, 66.2 µM. Moreover, the TGI is 68.1 µM in the experiment on MDA-MB-231 breast, over 100 µM in the experiment on SK-MEL-28 melanoma, over 100 µM in the experiment with SR leukemia and over 100 µM with SW-620 colon.

`CCN(Cc1ccc(F)cc1)c1ccc(CO)c(F)c1`: the GI50 was 0.114 µM in the experiment on A498 renal; 12.5 µM in the experiment on BT-549 breast; 21.5 µM in the experiment on CCRF-CEM leukemia; 12.8 µM in the experiment with HL-60(TB) leukemia; 17.2 µM with HS 578T breast; 16 µM in the experiment on HT29 colon. In addition, the GI50 was 18.9 µM in the experiment on MDA-MB-231 breast, 32 µM in the experiment with SK-MEL-28 melanoma, 15.1 µM in the experiment with SR leukemia and 7.09 µM in the experiment with SW-620 colon. For the same compound, the TGI is 0.252 µM in the experiment on A498 renal; 39.4 µM with BT-549 breast; over 74.6 µM in the experiment with CCRF-CEM leukemia; 37.3 µM in the experiment with HL-60(TB) leukemia; over 75.5 µM in the experiment on HS 578T breast; over 53.9 µM with HT29 colon. Further, the TGI in the experiment with MDA-MB-231 breast is over 69 µM; with SK-MEL-28 melanoma, over 100 µM; in the experiment with SR leukemia it was 45.1 µM; in the experiment on SW-620 colon it was over 100 µM.
